This test has as its target T1, E. histolytica LMW-PTP (Entamoeba histolytica, UniProt C4LSE7).
T1 sequence (C4LSE7 1-157): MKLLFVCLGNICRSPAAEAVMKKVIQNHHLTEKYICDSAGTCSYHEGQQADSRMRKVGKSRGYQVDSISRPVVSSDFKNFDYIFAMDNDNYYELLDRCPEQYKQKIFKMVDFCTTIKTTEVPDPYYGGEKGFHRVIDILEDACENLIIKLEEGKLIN
Put plainly: colorimetric phosphatase assay, A405. The test is classed as biochemical. Conditions: kit assay buffer, 10-200 ng enzyme, 100 ul.

Regarding `O=[N+]([O-])c1ccc(OP(=O)(O)O)cc1` [pNPP], the “colorimetric phosphatase assay, A405 (SensoLyte pNPP kit)” value is recorded as “The wild-type recombinant LMW-PTP possessed phosphatase activity”.

Values taken from article PMC4022148 (Molecular and biochemical parasitology, 2014).
